The test system of assay [1] is Staphylococcus aureus. As to the kind of experiment: Synergistic antibacterial activity against Staphylococcus aureus ATCC 29213 assessed as reduction in bacterial growth incubated for 24 hrs in presence of artocarpin by checkerboard method. Format: functional.
The subject of assay [2] is Staphylococcus aureus. Briefly: microbe, parasite or virus in culture. The conditions noted are these: ATCC 29213.
Description: Antibacterial activity against Staphylococcus aureus ATCC 29213 assessed as reduction in bacterial growth incubated for 16 to 18 hrs by broth microdilution method
Assay [3] has as its system Staphylococcus aureus. Briefly: Bactericidal activity against Staphylococcus aureus ATCC 29213 assessed as increase in extracellular ATP level at 2.5 times MIC after 1 hr by ATP bioluminescence assay. The assay is classed as functional, organism-based.
Assay [4] has as its system Staphylococcus aureus. As to the kind of experiment: Bactericidal activity against Staphylococcus aureus ATCC 29213 assessed as decrease in intracellular ATP level at 2.5 times MIC after 1 hr by ATP bioluminescence assay. The assay is classed as functional, organism-based.
Assay [5] has as its system Acinetobacter baumannii. As to the kind of experiment: Antibacterial activity against Acinetobacter baumannii BAA 1605 assessed as reduction in bacterial growth incubated for 16 to 18 hrs by broth microdilution method. Format: functional. The conditions noted are these: time 16-18 hrs.
In assay [6] the test system is Escherichia coli. As to the kind of experiment: Antibacterial activity against Escherichia coli ATCC 25922 assessed as reduction in bacterial growth incubated for 16 to 18 hrs by broth microdilution method. The conditions noted are these: time 16-18 hrs. Format: functional.
Assay [7] deals with Staphylococcus aureus. Briefly: Antibacterial activity against Staphylococcus aureus ATCC 29213 infected in Swiss mouse skin infection model assessed as reduction in skin bacterial load at 2 % dose administered twice daily for 4 days. The assay is classed as functional. The conditions noted are these: time 4 day.
Another assay has as its system Enterococcus. Briefly: Antibacterial activity against Enterococcus NR 31903 assessed as reduction in bacterial growth incubated for 16 to 18 hrs by broth microdilution method. The conditions noted are these: time 16-18 hrs. The assay is classed as functional.
A further assay has as its system Klebsiella pneumoniae. Briefly: Antibacterial activity against Klebsiella pneumoniae BAA 1705 assessed as reduction in bacterial growth incubated for 16 to 18 hrs by broth microdilution method. The conditions noted are these: time 16-18 hrs. Format: functional.
In a further assay the test system is Pseudomonas aeruginosa. Briefly: Antibacterial activity against Pseudomonas aeruginosa ATCC 27853 assessed as reduction in bacterial growth incubated for 16 to 18 hrs by broth microdilution method. The conditions noted are these: time 16-18 hrs. The assay is classed as functional.
The subject of assay [8] is Staphylococcus aureus. Briefly: Antibiofilm activity against Staphylococcus aureus ATCC 29213 assessed as reduction in preformed bacterial biofilm mass at 1 time MIC incubated for 24 hrs by crystal violet staining based microtiter plate reader assay. The assay is classed as functional. On the set-up: scale not given: the % may be the effect or the level left.
The subject of assay [9] is Staphylococcus aureus. As to the kind of experiment: Antibacterial activity against Staphylococcus aureus ATCC 29213 infected in mouse J774A.1 cells assessed as reduction in intracellular bacterial cells at 5 times MIC incubated for 24 hrs followed by re-plating on TSA plate and measured after 18 to 24 hrs. The assay is classed as functional.
For assay [10], the system named is Staphylococcus aureus. Briefly: Post antibiotic effect against Staphylococcus aureus ATCC 29213 assessed as time required for 1 log10 increase in CFU at 1 time MIC incubated for 1 hr followed by replacement with drug free medium and measured every 1 hr (reference value: 2 hrs). The assay is classed as functional.
Assay [11] relates to Staphylococcus aureus. As to the kind of experiment: Post antibiotic effect against Staphylococcus aureus ATCC 29213 assessed as time required for 1 log10 increase in CFU at 10 times MIC incubated for 1 hr followed by replacement with drug free medium and measured every 1 hr (reference value: 2 hrs). Format: functional.
The subject of assay [12] is Staphylococcus aureus. Briefly: Post antibiotic effect against Staphylococcus aureus ATCC 29213 at 1 time MIC incubated for 1 hr followed by replacement with drug free medium and measured every 1 hr (reference value: 0 hr). The assay is classed as functional.
Assay [13] relates to Staphylococcus aureus. As to the kind of experiment: Post antibiotic effect against Staphylococcus aureus ATCC 29213 at 10 times MIC incubated for 1 hr followed by replacement with drug free medium and measured every 1 hr (reference value: 0 hr). Format: functional.
Assay [14] in a line: Induction of resistance in Staphylococcus aureus ATCC 29213 assessed as increase in MIC treated over 35 serial passages by resistant development assay. The assay is classed as functional.
For assay [15], the system named is Staphylococcus aureus. As to the kind of experiment: Antibacterial activity against Staphylococcus aureus ATCC 29213 at 1 time MIC after 24 hrs by time kill assay. The assay is classed as functional.
In assay [16] the test system is Escherichia coli. As to the kind of experiment: Antibacterial activity against Escherichia coli ATCC 25922 assessed as reduction in bacterial growth incubated for 16 to 18 hrs in presence of PMBN by broth microdilution method. Format: functional. The conditions noted are these: time 16-18 hrs.
Assay [17] has as its system Acinetobacter baumannii. As to the kind of experiment: Antibacterial activity against Acinetobacter baumannii BAA 1605 assessed as reduction in bacterial growth incubated for 16 to 18 hrs in presence of PMBN by broth microdilution method. The conditions noted are these: time 16-18 hrs. The assay is classed as functional.

Values after ≈ are worked out from the molar mass of the structure shown. Active and inactive are the calls of the source. The rule behind the calls is not given here. Peptide text beside a SMILES is read from it. Bounds are passed on as bounds.

Consider `CCCCCCCCCC(=O)N[C@@H](Cc1c[nH]c2ccccc12)C(=O)N[C@H](CC(N)=O)C(=O)N[C@@H](CC(=O)O)C(=O)N[C@@H]1C(=O)NCC(=O)N[C@@H](CCCN)C(=O)N[C@@H](CC(=O)O)C(=O)N[C@H](C)C(=O)N[C@@H](CC(=O)O)C(=O)NCC(=O)N[C@H](CO)C(=O)N[C@@H]([C@H](C)CC(=O)O)C(=O)N[C@@H](CC(=O)c2ccccc2N)C(=O)O[C@@H]1C`, for which the MIC in the assay on Staphylococcus aureus [1] is 0.5 µg/mL; against Staphylococcus aureus [2], 1 µg/mL (≈ 0.617 µM).
Turning to `CC[C@H](C)[C@H](NC(=O)CN)C(=O)NCC(=O)N[C@@H](C)C(=O)N[C@H](C(=O)N[C@@H](CC(C)C)C(=O)N[C@@H](CCCCN)C(=O)N[C@H](C(=O)N[C@@H](CC(C)C)C(=O)N[C@H](C(=O)N[C@H](C(=O)NCC(=O)N[C@@H](CC(C)C)C(=O)N1CCC[C@H]1C(=O)N[C@@H](C)C(=O)N[C@@H](CC(C)C)C(=O)N[C@H](C(=O)N[C@@H](CO)C(=O)N[C@@H](Cc1c[nH]c2ccccc12)C(=O)N[C@H](C(=O)N[C@@H](CCCCN)C(=O)N[C@@H](CCCNC(=N)N)C(=O)N[C@@H](CCCCN)C(=O)N[C@@H](CCCNC(=N)N)C(=O)N[C@@H](CCC(N)=O)C(=O)N[C@@H](CCC(N)=O)C(N)=O)[C@@H](C)CC)[C@@H](C)CC)[C@@H](C)O)[C@@H](C)O)C(C)C)C(C)C`, the outcome in the assay on Staphylococcus aureus [3] and with Staphylococcus aureus [4] was Active.
As to `CC[C@H](C)CCCCC(=O)N[C@@H](CCN)C(=O)N[C@H](C(=O)N[C@@H](CCN)C(=O)N[C@H]1CCNC(=O)[C@H]([C@@H](C)O)NC(=O)[C@H](CCN)NC(=O)[C@H](CCN)NC(=O)[C@H](CC(C)C)NC(=O)[C@@H](Cc2ccccc2)NC(=O)[C@H](CCN)NC1=O)[C@@H](C)O` (HELM PEPTIDE1{[CC[C@H](C)CCCCC(=O)[*:2]].[Dab].T.[Dab].[Dab].[Dab].[dF].L.[Dab].[Dab].T}$PEPTIDE1,PEPTIDE1,5:R3-11:R2$$$V2.0), the MIC in the assay with Acinetobacter baumannii [5] and in the assay on Escherichia coli [6] was above 64 µg/mL in each case.
Take `CC(C)(O/N=C(\C(=O)N[C@@H]1C(=O)N2C(C(=O)[O-])=C(C[n+]3ccccc3)CS[C@H]12)c1csc(N)n1)C(=O)O` [CEFTAZIDIME]: the MIC with Staphylococcus aureus [1] came out at 16 µg/mL; against Staphylococcus aureus [2] it was 16 µg/mL (≈ 29.3 µM).
As to `CC(=O)O[C@H]1C[C@@]2(C)[C@@H](C[C@@H](O)[C@H]3[C@@]4(C)CC[C@@H](O)[C@@H](C)[C@@H]4CC[C@@]32C)/C1=C(\CCC=C(C)C)C(=O)O` [FUSIDIC ACID], in the assay with Staphylococcus aureus [7], the Activity was 1.8 log10CFU/g.
For `C[C@H]1COc2c(N3CCN(C)CC3)c(F)cc3c(=O)c(C(=O)O)cn1c23.C[C@H]1COc2c(N3CCN(C)CC3)c(F)cc3c(=O)c(C(=O)O)cn1c23.O` [LEVOFLOXACIN], the MIC with Enterococcus was above 64 µg/mL; in the assay on Klebsiella pneumoniae, 64 µg/mL; in the assay on Pseudomonas aeruginosa, 0.5 µg/mL; in the assay with Staphylococcus aureus [1], 0.25 µg/mL; in assay [14] it was 32 µg/mL; against Staphylococcus aureus [2], 0.125 µg/mL. The Activity in the assay with Staphylococcus aureus [8] amounted to 15%; in the assay on Staphylococcus aureus [9], 0.45 log10CFU/ml. Also, the Time in the assay on Staphylococcus aureus [10] was determined as 2.5 h; in the assay on Staphylococcus aureus [11], 3.5 h. Moreover, the PAE in the assay with Staphylococcus aureus [12] was 0.5 h; in the assay on Staphylococcus aureus [13], 1.5 h.
For the compound `CC(=O)NC[C@H]1CN(c2ccc(N3CCOCC3)c(F)c2)C(=O)O1` [LINEZOLID], the MIC with Staphylococcus aureus [1] was 1 µg/mL. Moreover, the Activity in the assay on Staphylococcus aureus [15] was 1.6 log10CFU/ml.
On to `C[C@@H](O)[C@H]1C(=O)N2C(C(=O)O)=C(S[C@@H]3CN[C@H](C(=O)N(C)C)C3)[C@H](C)[C@H]12` [MEROPENEM], for which the MIC with Staphylococcus aureus [1] is 2 µg/mL; against Staphylococcus aureus [2], 1 µg/mL (≈ 2.61 µM).
For `CN(C)c1ccc(O)c2c1C[C@H]1C[C@H]3[C@H](N(C)C)C(O)=C(C(N)=O)C(=O)[C@@]3(O)C(O)=C1C2=O` [MINOCYCLINE] the same measures were 0.125 µg/mL and 0.25 µg/mL (≈ 0.546 µM).
Regarding `CO[C@H]1/C=C/O[C@@]2(C)Oc3c(C)c(O)c4c(O)c(c(/C=N/N5CCN(C)CC5)c(O)c4c3C2=O)NC(=O)/C(C)=C\C=C\[C@H](C)[C@H](O)[C@@H](C)[C@@H](O)[C@@H](C)[C@H](OC(C)=O)[C@@H]1C` [RIFAMPIN], the MIC in the assay on Acinetobacter baumannii [5] came out at 2 µg/mL (≈ 2.43 µM); in the assay on Escherichia coli [6], 8 µg/mL (≈ 9.72 µM); with Escherichia coli [16], 0.06 µg/mL; in the assay with Acinetobacter baumannii [17], 0.03 µg/mL; in the assay with Staphylococcus aureus [1], 0.0078 µg/mL; in the assay with Staphylococcus aureus [2], 0.0078 µg/mL (≈ 0.00948 µM).
For `CN[C@H](CC(C)C)C(=O)N[C@H]1C(=O)N[C@@H](CC(N)=O)C(=O)N[C@H]2C(=O)N[C@H]3C(=O)N[C@H](C(=O)N[C@H](C(=O)O)c4cc(O)cc(O)c4-c4cc3ccc4O)[C@H](O)c3ccc(c(Cl)c3)Oc3cc2cc(c3O[C@@H]2O[C@H](CO)[C@@H](O)[C@H](O)[C@H]2O[C@H]2C[C@](C)(N)[C@H](O)[C@H](C)O2)Oc2ccc(cc2Cl)[C@H]1O` [VANCOMYCIN], the MIC in the assay on Acinetobacter baumannii [5] came out at 256 µg/mL (≈ 177 µM); with Escherichia coli [6] it was 512 µg/mL (≈ 353 µM); in the assay with Escherichia coli [16], 128 µg/mL; in the assay with Acinetobacter baumannii [17], 64 µg/mL. Also, in the assay with Staphylococcus aureus [8], the Activity is recorded as 4%. Moreover, the Time with Staphylococcus aureus [10] stood at 3 h; in the assay on Staphylococcus aureus [11], 3.5 h. The PAE is 1 h with Staphylococcus aureus [12] and 1.5 h with Staphylococcus aureus [13].
With GENTAMICIN, the MIC in the assay on Staphylococcus aureus [1] was found to be 0.06 µg/mL.

For the origin of these results see ChEMBL document CHEMBL5137134, “Developing the Natural Prenylflavone Artocarpin from Artocarpus hirsutus as a Potential Lead Targeting Pathogenic, Multidrug-Resistant Staphylococcus aureus, Persisters and Biofilms with No Detectable Resistance” (J Nat Prod, 2022).
